According to patent US20020198219A1, “2-pyridinamine compositions and related methods” (priority 2000, published 2002):

Test system: differentiated P19 neurons
Test: Drug screening using differentiated P19 cell assay (neuroprotection against glutamate/glycine)
Format: cell-based, murine
Details: for IC50: dose response 0.005-3 μM, 3 mM glutamate + 1 mM glycine, >1 = no maximum within highest dose (3 μM); for % neuroprotection (cell survival relative to control): screened at 1 micromolar, percentage of control cells surviving after 24 hours
Description: Commercially available chemical libraries (BioFocus PLC, UK) were screened using the methods described herein. The stock concentration of the compounds was about 400 μM in DMSO. The concentration of compounds used in the primary screen was 1 μM. […] Columns 4-11 received compounds at the following final concentrations (μM): 3, 1.2, 0.48, 0.192, 0.077, 0.031, 0.012 and 0.005. Each row contained a different compound for confirmation. Only rows B-G received compounds, and rows A and H remained untreated. Data are expressed as % neuroprotection=((compound-glutamate average)/(U0126-glutamate average)×100).
Only the 2-pyridinamines are the subject of this invention, although limited data for 4-pyrimidinamines are presented as well. “% Inh” indicates the percentage of control cells surviving after 24 hours, and represents the neuroprotective effect of the compounds screened at 1 micromolar concentration. IC50 relate to data from dose response experiments. […] ND refers to compounds not tested in dose-response experiments. […]

Cc1ccc(-c2ccc(Nc3ccc(N4CCOCC4)cc3)nc2)cc1C [Cmpd 80]
IC50: 750 nM | % neuroprotection (cell survival relative to control): 94%

c1ccc2cc(-c3ccc(Nc4ccc5c(c4)OCCO5)nc3)ccc2c1 [Cmpd 81]
IC50: 470 nM | % neuroprotection (cell survival relative to control): 107%

COc1ccc(Nc2ccc(-c3ccccc3)cn2)cc1 [Cmpd 82]
% neuroprotection (cell survival relative to control): 72%

COc1ccc(Nc2ccc(-c3ccc(N4CCOCC4)cc3)cn2)cc1 [Cmpd 83]
% neuroprotection (cell survival relative to control): 71%

COc1cc(Nc2ccc(-c3ccc(C)c(C)c3)cn2)cc(OC)c1OC [Cmpd 84]
IC50: 490 nM | % neuroprotection (cell survival relative to control): 85%

Cc1ccc(-c2ccc(Nc3ccc4c(c3)OCCO4)nc2)cc1C [Cmpd 85]
IC50: > 1000 nM | % neuroprotection (cell survival relative to control): 86%

COc1ccc(Nc2ccc(-c3ccc(C)c(C)c3)cn2)cc1 [Cmpd 86]
IC50: > 1000 nM | % neuroprotection (cell survival relative to control): 80%

Cc1ccc(-c2ccc(Nc3cccc(N(C)C)c3)nc2)cc1C [Cmpd 87]
IC50: > 1000 nM | % neuroprotection (cell survival relative to control): 84%

C(=C\c1ccc(Nc2ccc3c(c2)OCCO3)nc1)/c1ccccc1 [Cmpd 88, 2-pyridinamine, N-(2,3-dihydro-1,4-benzodioxin-6-yl)-5-[(E)-2-phenylethenyl]-]
IC50 (Mus musculus, Neuron): 230 nM | % neuroprotection (cell survival relative to control): 85%

COc1ccc(Nc2ccc(C=Cc3ccccc3)cn2)c(C)c1 [Cmpd 90]
% neuroprotection (cell survival relative to control): 73%

COc1ccc(Nc2cccc(-c3ccc4ccccc4c3)n2)cc1 [Cmpd 97]
% neuroprotection (cell survival relative to control): 71%

COc1ccc(Nc2cccc(-c3ccc(N(C)C)cc3)n2)cc1 [Cmpd 98]
% neuroprotection (cell survival relative to control): 71%

CCn1c2ccccc2c2cc(Nc3cccc(-c4cccc(N)c4)n3)ccc21 [Cmpd 99]
IC50: 330 nM | % neuroprotection (cell survival relative to control): 105%

COc1ccc(Nc2cccc(-c3cccc(N)c3)n2)cc1 [Cmpd 100]
% neuroprotection (cell survival relative to control): 79%

COc1ccc(Nc2cccc(-c3ccccc3Oc3ccccc3)n2)cc1 [Cmpd 101]
% neuroprotection (cell survival relative to control): 78%

COc1ccc(Nc2cccc(-c3ccc(CNC(=O)OC(C)(C)C)cc3)n2)cc1 [Cmpd 102]
IC50 (Mus musculus, Neuron): 940 nM | % neuroprotection (cell survival relative to control): 103%

COc1ccc(Nc2cccc(-c3ccc(Cl)cc3)n2)cc1 [Cmpd 103]
% neuroprotection (cell survival relative to control): 75%

CCn1c2ccccc2c2cc(Nc3cccc(-c4cccc(N(C)C)c4)n3)ccc21 [Cmpd 104, 9H-carbazol-3-amine, N-[6-[3-(dimethylamino)phenyl]-2-pyridinyl]-9-ethyl-]
IC50 (Mus musculus, Neuron): 90 nM | % neuroprotection (cell survival relative to control): 89%

COc1ccc(Nc2cccc(-c3cccc(N(C)C)c3)n2)cc1 [Cmpd 105]
IC50: 400 nM | % neuroprotection (cell survival relative to control): 98%

COc1cc(Nc2cccc(-c3ccc(N4CCOCC4)cc3)n2)cc(OC)c1OC [Cmpd 106]
IC50: 660 nM | % neuroprotection (cell survival relative to control): 84%

COc1ncc(-c2cccc(Nc3cc(OC)c(OC)c(OC)c3)n2)c(OC)n1 [Cmpd 107]
% neuroprotection (cell survival relative to control): 71%

COc1cc(Nc2cccc(-c3cc4ccccc4o3)n2)cc(OC)c1OC [Cmpd 110]
IC50: 140 nM | % neuroprotection (cell survival relative to control): 91%

COc1cc(Nc2cccc(-c3cc(OC)c(OC)c(OC)c3)n2)cc(OC)c1OC [Cmpd 112]
IC50: 900 nM | % neuroprotection (cell survival relative to control): 90%

COc1cc(Nc2cccc(-c3cccc(N(C)C)c3)n2)cc(OC)c1OC [Cmpd 113]
IC50: 540 nM | % neuroprotection (cell survival relative to control): 91%

CCOc1cccc(-c2cccc(Nc3cc(OC)c(OC)c(OC)c3)n2)c1 [Cmpd 114, 2-pyridinamine, 6-(3-ethoxyphenyl)-N-(3,4,5-trimethoxyphenyl)-]
IC50 (Mus musculus, Neuron): 140 nM | % neuroprotection (cell survival relative to control): 96%

COc1cc(Nc2cccc(-c3ccc(O)cc3)n2)cc(OC)c1OC [Cmpd 117]
% neuroprotection (cell survival relative to control): 78%

COc1cc(Nc2cccc(-c3cccc(OC(F)(F)F)c3)n2)cc(OC)c1OC [Cmpd 118, 2-pyridinamine, 6-[3-(trifluoromethoxy)phenyl]-N-(3,4,5-trimethoxyphenyl)-]
IC50 (Mus musculus, Neuron): 50 nM | % neuroprotection (cell survival relative to control): 91%

COc1cc(Nc2cccc(-c3ccc4c(c3)OCO4)n2)cc(OC)c1OC [Cmpd 120, 2-pyridinamine, 6-(1,3-benzodioxol-5-yl)-N-(3,4,5-trimethoxyphenyl)-]
IC50 (Mus musculus, Neuron): 50 nM | % neuroprotection (cell survival relative to control): 97%

COc1cc(Nc2cccc(-c3ccc(-c4ccccc4)cc3)n2)cc(OC)c1OC [Cmpd 121]
IC50: 650 nM | % neuroprotection (cell survival relative to control): 96%

COc1cc(Nc2cccc(-c3ccccc3)n2)cc(OC)c1OC [Cmpd 122, 2-pyridinamine, 6-phenyl-N-(3,4,5-trimethoxyphenyl)-]
IC50 (Mus musculus, Neuron): 7 nM | % neuroprotection (cell survival relative to control): 84%

COc1ccc(Nc2cccc(-c3ccccc3)n2)cc1 [Cmpd 123]
IC50 (Mus musculus, Neuron): 650 nM | % neuroprotection (cell survival relative to control): 90%

COc1ccc(-c2cccc(Nc3cc(OC)c(OC)c(OC)c3)n2)cc1OC [Cmpd 124, 2-pyridinamine, 6-(3,4-dimethoxyphenyl)-N-(3,4,5-trimethoxyphenyl)-]
IC50 (Mus musculus, Neuron): 230 nM | % neuroprotection (cell survival relative to control): 86%

COc1cc(Nc2cccc(-c3ccc(C)c(C)c3)n2)cc(OC)c1OC [Cmpd 126, 2-pyridinamine, 6-(3,4-dimethylphenyl)-N-(3,4,5-trimethoxyphenyl)-]
IC50 (Mus musculus, Neuron): 80 nM | % neuroprotection (cell survival relative to control): 90%

COc1cc(C)c(Nc2cccc(-c3ccc(C)c(C)c3)n2)cc1OC [Cmpd 127, 2-pyridinamine, N-(4,5-dimethoxy-2-methylphenyl)-6-(3,4-dimethylphenyl)]
IC50 (Mus musculus, Neuron): 190 nM | % neuroprotection (cell survival relative to control): 86%

COc1ccc(Nc2cccc(-c3ccc(C)c(C)c3)n2)cc1 [Cmpd 128]
IC50: 1540 nM | % neuroprotection (cell survival relative to control): 84%

CCn1c2ccccc2c2cc(Nc3cccc(-c4ccc(OC)c(OC)c4)n3)ccc21 [Cmpd 129]
IC50: 340 nM | % neuroprotection (cell survival relative to control): 92%

COc1ccc(Nc2cccc(-c3ccc(OC)c(OC)c3)n2)cc1 [Cmpd 130]
IC50: 850 nM | % neuroprotection (cell survival relative to control): 96%

COc1ccc(Nc2cccc(-c3ccco3)n2)cc1 [Cmpd 131]
IC50 (Mus musculus, Neuron): 240 nM | % neuroprotection (cell survival relative to control): 95%

CCn1c2ccccc2c2cc(Nc3cccc(-c4ccco4)n3)ccc21 [Cmpd 132]
IC50: > 1000 nM | % neuroprotection (cell survival relative to control): 105%

CCn1c2ccccc2c2cc(Nc3cccc(-c4cncc(OC)c4)n3)ccc21 [Cmpd 134]
IC50: 1590 nM | % neuroprotection (cell survival relative to control): 92%

COc1cc(Nc2cccc(-c3ccc4ccccc4c3)n2)cc(OC)c1OC [Cmpd 135, 2-pyridinamine, 6-(2-naphthyl)-N-(3,4,5-trimethoxyphenyl)-]
IC50 (Mus musculus, Neuron): 210 nM | % neuroprotection (cell survival relative to control): 86%

COc1ccc(Nc2cccc(-c3ccc4ccccc4c3)n2)c(C)c1OC [Cmpd 136]
IC50 (Mus musculus, Neuron): > 1000 nM | % neuroprotection (cell survival relative to control): 86%

COc1cc(Nc2cccc(-c3cc(C(F)(F)F)cc(C(F)(F)F)c3)n2)cc(OC)c1OC [Cmpd 137]
IC50: 590 nM | % neuroprotection (cell survival relative to control): 82%

COc1cc(Nc2cccc(-c3ccccc3Oc3ccccc3)n2)cc(OC)c1OC [Cmpd 138, 2-pyridinamine, 6-(2-phenoxyphenyl)-N-(3,4,5-trimethoxyphenyl)-]
IC50 (Mus musculus, Neuron): 230 nM | % neuroprotection (cell survival relative to control): 90%

CCn1c2ccccc2c2cc(Nc3cccc(-c4ccc5c(c4)OCO5)n3)ccc21 [Cmpd 139]
% neuroprotection (cell survival relative to control): 72%

c1ccc(Oc2ccc(Nc3cccc(-c4ccc5c(c4)OCO5)n3)cc2)cc1 [Cmpd 140]
% neuroprotection (cell survival relative to control): 79%

COc1cc(Nc2cccc(-c3ccc(Cl)cc3)n2)cc(OC)c1OC [Cmpd 141]
% neuroprotection (cell survival relative to control): 76%

COc1cc(Nc2cccc(-c3ccc(F)c(Cl)c3)n2)cc(OC)c1OC [Cmpd 142]
% neuroprotection (cell survival relative to control): 94%

COc1cc(Nc2cccc(/C=C/c3ccccc3)n2)cc(OC)c1OC [Cmpd 144, 2-pyridinamine, 6-[(E)-2-phenylethenyl]-N-(3,4,5-trimethoxyphenyl)-]
IC50 (Mus musculus, Neuron): 30 nM | % neuroprotection (cell survival relative to control): 110%

COc1ccc(Nc2cccc(C=Cc3ccccc3)n2)c(C)c1OC [Cmpd 145]
IC50: 280 nM | % neuroprotection (cell survival relative to control): 96%

COc1cc(Nc2cccc(-c3ccc(Cl)c(Cl)c3)n2)cc(OC)c1OC [Cmpd 146]
IC50: 320 nM | % neuroprotection (cell survival relative to control): 99%
